Reference: patent US3939263A, “Methods of combatting insects and acarina using oxygenated derivatives of S-(tert-bulythio)methyl O,O-diethyl phosphorodithioate and phosphorothioate” (priority 1974, dated 1976)

Key:
[1] = system: Two-Spotted Spider Mite; test: Two-Spotted Spider Mite, dipped infested lima bean plants; type: in vivo, Tetranychus urticae (Koch); details: Tetranychus urticae, read-out: % Kill, Two-Spotted Spider Mite
Method: Two-Spotted Spider Mite -- Tetranychus urticae (Koch)
Sieva lima bean plants, with primary leaves 3 to 4 inches long, are infested with about 100 adult mites per leaf 4 hours before use in this test, in order to allow egg-laying before treatment. The infested plants are dipped for 3 seconds with agitation into a 35/65% water/acetone mixture containing 1000 ppm. of test compound and the plants set in the hood to dry. After 2 days at 80°F., and 50% r.h., the adult mite mortality is estimated on one leaf under a 10X stereoscopic microscope. The other leaf is left on the plant an additional 5 days and then examined at 10X power to estimate the kill of eggs and of newly hatched nymphs, giving a measure of ovicidal and residual action, respectively.

[2] = system: Southern Armyworm; test: Southern Armyworm, dipped lima bean leaf; type: in vivo, Spodoptera eridania (Cramer); details: Spodoptera eridania, 48 h, 2 days, read-out: % Kill, Southern Armyworm
Method: Southern Armyworm -- Spodoptera eridania (Cramer)
A Sieva lima bean plant with just the primary leaves expanded to 3 to 4 inches is dipped for 3 seconds with agitation in a 35/65% water/acetone mixture containing 1000 ppm. of test compound and set in the hood to dry. Following this, one leaf is placed in a 4-inch petri dish which has a moist filter paper in the bottom and ten third-instar armyworm larvae about three-eighths inch long. The dish is covered and held at 80°F., and 50% r.h. After 2 days, mortality counts and estimates of the amount of feeding are made. Compounds showing partial kill and/or inhibition of feeding are held for an extra day for further observations.

[3] = system: Bean Aphid; test: Bean Aphid, sprayed nasturtium plants; type: in vivo, Aphis fabae Scopoli; details: Aphis fabae, 24 h, one day, read-out: % Kill, Bean Aphid
Method: Bean Aphid -- Aphis fabae Scopoli
Two-inch fiber pots, each containing a nasturtium plant 2 inches high and infested with 100 to 150 aphids 2 days earlier are placed on a 4 […] an Atomizer at 20 psi. air pressure. The spray tip is held about 6 inches from the plants and the spray directed so as to give complete coverage of the aphids and the plants. The sprayed plants are laid on their sides on white enamel trays. Mortality estimates are made after one day at 70°F., 50% r.h.

[4] = system: Cotton Boll Weevil; test: Cotton Boll Weevil, treated cotton cotyledon, 2-day mortality; type: in vivo, Anthonomus grandis Boheman; details: 48 h, 2 days, read-out: % Kill, Cotton Boll Weevil
Method: Cotton Boll Weevil -- Anthonomus grandis Boheman
A cotton plant with cotyledons expanded is dipped for 3 seconds with agitation in 35/65% aqueous acetone mixture containing 100 ppm. of test compound and set in the hood to dry. One cotyledon is removed from the plant and placed in a 4-inch petri dish containing a moist filter paper on the bottom and 10 adult weevils. After 2 days at 80°F., and 50% r.h., mortality counts are made, prodding each insect to distinguish dead ones from those "playing dead."

[5] = Mammalian toxicity, LD50 in mice; type: in vivo, male albino mice of the CFI strain; details: mouse, in vivo; male albino mice, corn oil, 0.5 ml./kg.
Method: (§1) For the tests reported in Table II, 20 male albino mice of the CFI strain, weighing approximately 18 grams to 20 grams are selected. The phosphates are readied for administration by preparing a solution or dispersion in corn oil (Mazola), the concentration of which is adjusted so that the total volume of the dose is 0.5 ml./kg. in every case. The initial solution is prepared by deciding upon the maximum dosage in mg./kg. to be administered and preparing 10 ml. of this solution of such a concentration that the desired dosage in mg./kg. is delivered when 0.5 ml. of the solution is administered for 20 grams of mouse body weight. Serial dilutions differing by a factor of two are then prepared for each lower dosage level. LD50 stands for the lethal dose in mg./kg. which kills 50% of the mice.

[6] = system: insects; test: Insecticidal activity compared with art compound; type: in vivo; details: versus O,O-diethyl S-(tert-butylsulfinyl)methyl phosphorodithioate
[7] = system: mice; test: Mammalian toxicity, LD50 in mice; type: in vivo, male albino mice of the CFI strain; details: versus O,O-diethyl S-(tert-butylsulfinyl)methyl phosphorodithioate
Method: as §1

Row | SMILES | mortality at 100 ppm [1] | mortality at 1000 ppm [1] | mortality at 100 ppm [2] | mortality at 1000 ppm [2] | mortality at 1 ppm [3] | mortality at 10 ppm [3] | mortality at 100 ppm [3] | mortality at 100 ppm [4] | LD50 [5] | insecticidal activity relative to art compound [6] | toxicity to mammals (mice) relative to art compound [7]
1 | CCOP(=O)(OCC)SC[S+]([O-])C(C)(C)C (stereo not drawn) [O,O-diethyl S-(tert-butylsulfinyl)methyl Phosphorothioate] | 100% | 100% | 100% | 100% | 100% | 100% | 100% | 90% | 1.1 mg/kg |  | 
2 | CCOP(=S)(OCC)SC[S+]([O-])C(C)(C)C (stereo not drawn) [O,O-diethyl S-(tert-butylsulfinyl)methyl phosphorodithioate, reference compound] | 100% | 100% | 70% | 100% | 100% | 100% | 100% | 100% | 3.4 mg/kg |  | 
3 | CCOP(=S)(OCC)SCS(=O)(=O)C(C)(C)C [O,O-diethyl S-(tert-butylsulfonyl)methyl Phosphorodithioate] | 100% | 100% | 100% | 100% | 100% | 100% | 100% | 90% | 14 mg/kg | equal to, and in some cases superior to, this art compound | much less toxic to mammals (mice) than the art compound
4 | CCOP(=O)(OCC)SCS(=O)(=O)C(C)(C)C [O,O-diethyl S-(tert-butylsulfonyl)methyl Phosphorothioate] | 100% | 100% | 100% | 100% | 100% | 100% | 100% | 90% | 3.4 mg/kg |  | 
